# Data published in ChEMBL document CHEMBL4680144, “N-thiadiazole-4-hydroxy-2-quinolone-3-carboxamides bearing heteroaromatic rings as novel antibacterial agents: Design, synthesis, biological evaluation and target identification” (Eur J Med Chem, 2020).
# Calls of active or inactive are those of the source. The calls are words filed in the database; no cut-off is given here.
# Key:
# [1] = molecular target: DNA topoisomerase 4 subunit B (Staphylococcus aureus, UniProt P0C1S7); assay: Inhibition of Staphylococcus aures ParE using pBR322 DNA as substrate in presence of ATP
# Chain of DNA topoisomerase 4 subunit B (P0C1S7 whole entry): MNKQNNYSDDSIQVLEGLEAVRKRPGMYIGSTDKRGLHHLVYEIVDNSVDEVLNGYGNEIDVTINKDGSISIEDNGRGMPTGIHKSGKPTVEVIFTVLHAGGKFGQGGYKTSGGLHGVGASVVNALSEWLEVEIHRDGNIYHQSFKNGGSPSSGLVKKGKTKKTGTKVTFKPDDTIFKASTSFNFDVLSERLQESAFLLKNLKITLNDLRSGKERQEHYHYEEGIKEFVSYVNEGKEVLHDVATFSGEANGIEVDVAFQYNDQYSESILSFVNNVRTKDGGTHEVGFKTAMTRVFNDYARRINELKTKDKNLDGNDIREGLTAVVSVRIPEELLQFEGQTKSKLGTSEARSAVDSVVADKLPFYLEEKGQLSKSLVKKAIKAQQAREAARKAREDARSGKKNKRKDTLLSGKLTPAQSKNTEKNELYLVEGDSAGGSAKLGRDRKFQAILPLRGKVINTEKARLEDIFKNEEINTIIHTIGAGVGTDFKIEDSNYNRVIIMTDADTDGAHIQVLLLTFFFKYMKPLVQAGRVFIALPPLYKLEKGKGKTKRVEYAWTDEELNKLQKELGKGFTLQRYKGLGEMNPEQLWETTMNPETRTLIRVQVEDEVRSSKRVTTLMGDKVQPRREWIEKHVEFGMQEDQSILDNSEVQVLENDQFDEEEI
# [2] = tested on: Enterococcus faecalis; assay: Antibacterial activity against Enterococcus faecalis clinical isolate 15-2 assessed as inhibition of bacterial growth incubated for 18 to 24 hrs by broth microdilution method; assay type: functional; settings: time 18-24 hrs
# [3] = tested on: Staphylococcus aureus; assay: (§1) In vivo antibacterial activity against methicillin resistant Staphylococcus aureus clinical isolate 15-1 infected in kunming mouse assessed as animal survival rate at 1 mg/kg, po administered 6 hrs prior to bacterial infection and at 0 and 6 hrs post infection and measured for 7 days (reference value: 12.5 %); assay type: functional; settings: 15-1, po, 168 h, time 7 day
# [4] = Tmax in Kunming mouse at 10 mg/kg, po measured upto 72 hrs by HPLC analysis; assay type: ADME, organism-based; settings: in vivo
# [5] = tested on: Staphylococcus aureus; assay: as §1, with “at 9” for “at 1”; assay type: functional; settings: 15-1, po, 168 h, time 7 day
# [6] = tested on: Enterococcus faecalis; assay: Potency index, ratio of vancomycin MIC to test compound MIC for antibacterial activity against Enterococcus faecalis clinical isolate 15-1 assessed as inhibition of bacterial growth incubated for 18 to 24 hrs by broth microdilution method; assay type: functional; settings: time 18-24 hrs
# [7] = Toxicity in Kunming mouse assessed as death at 30 mg/kg, po; assay type: organism-based; settings: in vivo
# [8] = tested on: Staphylococcus aureus; assay: as §1, with “at 3” for “at 1”; assay type: functional; settings: 15-1, po, 168 h, time 7 day
# [9] = tested on: Enterococcus faecium; assay: Potency index, ratio of vancomycin MIC to test compound MIC for antibacterial activity against Enterococcus faecium clinical isolate 15-2 assessed as inhibition of bacterial growth incubated for 18 to 24 hrs by broth microdilution method; assay type: functional; settings: time 18-24 hrs
# [10] = Metabolic stability in mouse liver microsomes assessed as intrinsic clearance preincubated for 5 mins followed by NADPH addition and measured up to 60 mins by LC-MS/MS analysis; assay type: ADME, Microsome; settings: time 65 min, read-out: CLH
# [11] = tested on: Staphylococcus epidermidis; assay: Antibacterial activity against methicillin-sensitive Staphylococcus epidermidis clinical isolate 15-3 assessed as inhibition of bacterial growth incubated for 18 to 24 hrs by broth microdilution method; assay type: functional; settings: time 18-24 hrs
# [12] = tested on: Staphylococcus aureus; assay: Antibacterial activity against wild type methicillin-sensitive Staphylococcus aureus ATCC 29213 assessed as inhibition of bacterial growth incubated for 18 to 24 hrs by broth microdilution method; assay type: functional; settings: time 18-24 hrs
# [13] = tested on: Staphylococcus epidermidis; assay: Antibacterial activity against methicillin-sensitive Staphylococcus epidermidis clinical isolate 15-4 assessed as inhibition of bacterial growth incubated for 18 to 24 hrs by broth microdilution method; assay type: functional; settings: time 18-24 hrs
# [14] = AUClast in Kunming mouse at 10 mg/kg, po measured upto 72 hrs by HPLC analysis; assay type: ADME, organism-based; set-up: route oral, dose 10 mg/kg, time <=72; settings: in vivo
# [15] = tested on: Enterococcus faecium; assay: Antibacterial activity against Enterococcus faecium clinical isolate 15-1 assessed as inhibition of bacterial growth incubated for 18 to 24 hrs by broth microdilution method; assay type: functional; settings: time 18-24 hrs
# [16] = tested on: Staphylococcus aureus; assay: Potency index, ratio of vancomycin MIC to test compound MIC for antibacterial activity against methicillin-resistant Staphylococcus aureus clinical isolate 15-7 assessed as inhibition of bacterial growth incubated for 18 to 24 hrs by broth microdilution method; assay type: functional; settings: time 18-24 hrs
# [17] = tested on: Staphylococcus aureus; assay: Antibacterial activity against methicillin resistant and vancomycin-intermediate sensitive Staphylococcus aureus ATCC 700699 assessed as inhibition of bacterial growth incubated for 18 to 24 hrs by broth microdilution method; assay type: functional; settings: time 18-24 hrs
# [18] = tested on: Enterococcus faecalis; assay: Antibacterial activity against vancomycin-resistant Enterococcus faecalis ATCC 51299 assessed as inhibition of bacterial growth incubated for 18 to 24 hrs by broth microdilution method; assay type: functional; settings: time 18-24 hrs
# [19] = tested on: Staphylococcus aureus; assay: Antibacterial activity against methicillin resistant and vancomycin-intermediate sensitive Staphylococcus aureus ATCC 700788 assessed as inhibition of bacterial growth incubated for 18 to 24 hrs by broth microdilution method; assay type: functional; settings: time 18-24 hrs
# [20] = Selectivity index, ratio of IC50 for human HepG2 cells to MIC for methicillin-resistant Staphylococcus aureus; assay type: toxicity
# [21] = tested on: Staphylococcus epidermidis; assay: Potency index, ratio of vancomycin MIC to test compound MIC for antibacterial activity against methicillin-sensitive Staphylococcus epidermidis clinical isolate 15-3 assessed as inhibition of bacterial growth incubated for 18 to 24 hrs by broth microdilution method; assay type: functional; settings: time 18-24 hrs
# [22] = tested on: Staphylococcus aureus; assay: In vivo antibacterial activity against methicillin-resistant Staphylococcus aureus clinical isolate 15-1 infected in Kunming mouse assessed as protection from systemic infection up to 50 mg/kg, po administered twice after bacterial infection; assay type: functional, organism-based; settings: dose mg/kg <=50
# [23] = tested on: Staphylococcus epidermidis; assay: Potency index, ratio of vancomycin MIC to test compound MIC for antibacterial activity against methicillin-sensitive Staphylococcus epidermidis clinical isolate 15-4 assessed as inhibition of bacterial growth incubated for 18 to 24 hrs by broth microdilution method; assay type: functional; settings: time 18-24 hrs
# [24] = tested on: Staphylococcus aureus; assay: Potency index, ratio of vancomycin MIC to test compound MIC for antibacterial activity against methicillin-resistant Staphylococcus aureus clinical isolate 15-8 assessed as inhibition of bacterial growth incubated for 18 to 24 hrs by broth microdilution method; assay type: functional; settings: time 18-24 hrs
# [25] = tested on: Staphylococcus aureus; assay: Antibacterial activity against methicillin-resistant Staphylococcus aureus clinical isolate 15-1 assessed as inhibition of bacterial growth incubated for 18 to 24 hrs by broth microdilution method; assay type: functional; settings: time 18-24 hrs
# [26] = Metabolic stability in mouse liver microsomes assessed as half life preincubated for 5 mins followed by NADPH addition and measured up to 60 mins by LC-MS/MS analysis; assay type: ADME, Microsome; settings: time 65 min
structure (smiles),measurement,setting,value
CCn1c(=O)c(C(=O)Nc2nnc(-c3nccs3)s2)c(O)c2ccccc21,IC50,[1],> 100 µM
same,MIC,[2],0.5 µg/mL
same,survival at 1 mg/kg,[3],37.5%
same,Tmax,[4],60 min
same,survival at 9 mg/kg,[5],87.5%
same,Ratio,[6],2
same,Activity,[7],Non-Toxic
same,survival at 3 mg/kg,[8],50%
same,Ratio,[9],2
same,microsomal CLint,[10],38.9 µL/min/mg
same,MIC,[11],0.5 µg/mL
same,MIC,[12],0.1 µg/mL
same,MIC,[13],0.5 µg/mL
same,AUC(0-t) at 72 h,[14],2540 ng·h/mL
same,MIC,[15],1 µg/mL
same,Ratio,[16],2
same,MIC,[17],0.5 µg/mL
same,MIC,[18],0.5 µg/mL
same,MIC,[19],0.5 µg/mL
same,selectivity ratio,[20],111
same,Ratio,[21],2
same,Activity,[22],inactive
same,Ratio,[23],2
same,Ratio,[24],2
same,MIC,[25],0.5 µg/mL
same,half-life,[26],35.6 min
